Reference: publication PMC8693998 (Journal of natural products, 2021)
“Also recorded” adds a separate entry of the source.

What was measured:
[1] = test system: human μ-opioid receptor (MOR); settings: cited from earlier work
human μ-opioid receptor = human μ-opioid receptor (Homo sapiens, UniProt P35372); assay type: binding
[2] = test system: hot plate latency in catheterized rats; test: Rat hot plate antinociception assay; assay type: in vivo, Sprague–Dawley rats
[3] = test system: human μ-opioid receptor (MOR); test: Human μ-opioid receptor binding affinity quoted from the literature; settings: fold lower affinity than found in the present study
[4] = molecular target: human μ-opioid receptor (MOR); settings: read-out: μ-opioid, Ki ± SEM; cited from earlier work

human μ-opioid receptor, sequence (P35372 whole entry): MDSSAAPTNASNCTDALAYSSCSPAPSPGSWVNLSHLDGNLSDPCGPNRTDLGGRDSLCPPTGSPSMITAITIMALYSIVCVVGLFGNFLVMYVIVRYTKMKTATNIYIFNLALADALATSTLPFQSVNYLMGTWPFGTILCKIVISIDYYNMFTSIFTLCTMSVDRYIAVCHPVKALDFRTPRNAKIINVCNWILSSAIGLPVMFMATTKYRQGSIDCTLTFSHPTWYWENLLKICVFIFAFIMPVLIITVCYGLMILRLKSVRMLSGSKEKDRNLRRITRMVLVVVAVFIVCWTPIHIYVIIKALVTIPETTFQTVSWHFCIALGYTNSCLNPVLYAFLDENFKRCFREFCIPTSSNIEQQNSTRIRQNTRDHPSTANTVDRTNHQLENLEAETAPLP

CC[C@@H]1CN2CCc3c([nH]c4cccc(OC)c34)[C@@H]2C[C@@H]1/C(=C\OC)C(=O)OC [mitragynine (6), mitragynine]
Type of activity at the human μ-opioid receptor [1]: partial agonists

CC[C@@H]1CN2CC[C@]3(C(=O)Nc4cccc(OC)c43)[C@@H]2C[C@@H]1/C(=C\OC)C(=O)OC [mitragynine oxindole B (4), mitragynine oxindole B]
Loss of hMOR affinity relative to corynoxine B (2) (human μ-opioid receptor): 16 fold

CC[C@@H]1CN2CC[C@@]3(C(=O)Nc4ccccc43)[C@@H]2C[C@@H]1/C(=C\OC)C(=O)OC [corynoxine (1), corynoxine]
Reversal of antinociception by naltrexone ([2]; rat hot plate, 0.1 mg/kg (i.v.) naltrexone after cumulative doses, 0.1 mg/kg): fully reversed; also recorded: antagonized by naltrexone
Potency relative to morphine in hot plate assay ([2]; rats, nociceptive hot plate assay, fold more potent than morphine): 1.8 fold

CC[C@@H]1CN2CC[C@]3(C(=O)Nc4ccccc43)[C@@H]2C[C@@H]1/C(=C\OC)C(=O)OC [corynoxine B (2), corynoxine B]
Loss of hMOR affinity relative to corynoxine (1) (human μ-opioid receptor; human μ-opioid receptor, […]): about 6 times
μ-opioid affinity in a recent study relative to the present study [3]: approximately 15 fold

CC[C@@H]1CN2CCc3c([nH]c4cccc(OC)c34)[C@H]2C[C@@H]1/C(=C\OC)C(=O)OC [speciociliatine (9), speciociliatine]
Type of activity at the human μ-opioid receptor [1]: partial agonists

CC[C@@H]1CN2CC[C@@]3(O)C(=Nc4cccc(OC)c43)[C@@H]2C[C@@H]1/C(=C\OC)C(=O)OC [7-hydroxymitragynine (11), 7-hydroxymitragynine, reference compound]
Type of activity at the human μ-opioid receptor [1]: partial agonists
Ki [4]: 7.2 nM
